Values joined by “and” are separate entries in the source; they are usually repeats but may differ in a detail not shown here. Equal values may be shown once. Inconclusive results and toxic doses are left out. Cut-off read from the data, not from the text of the source: active = T/C of 150% or more; inactive = T/C below 125%.
System: L1210 leukemia ip in BDF1 mice, survival T/C
Experiment: NCI In Vivo Anticancer Drug Screen. Data for tumor model L1210 Leukemia (intraperitoneal) in B6D2F1 (BDF1) mice
Details: endpoint: mean survival time, higher = longer survival
Outline: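 Each compound was tested against a transplantable tumor grown in mice. The endpoint was survival, with treated animals benchmarked against vehicle controls as a simple ratio.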

[1] = dose: 100.0 mg/kg/injection, schedule: Q01DX001 (ip), vehicle: carboxymethylcellulose (CMC)
[2] = dose: 200.0 mg/kg/injection, schedule: Q01DX001 (ip), vehicle: carboxymethylcellulose (CMC)
[3] = dose: 100.0 mg/kg/injection, schedule: Q01DX009 (ip), vehicle: saline with Tween-80
[4] = dose: 200.0 mg/kg/injection, schedule: Q01DX009 (ip), vehicle: saline with Tween-80
[5] = dose: 400.0 mg/kg/injection, schedule: Q01DX009 (ip), vehicle: saline with Tween-80
[6] = dose: 100.0 mg/kg/injection, schedule: Q01DX001 (ip), vehicle: saline
[7] = dose: 200.0 mg/kg/injection, schedule: Q01DX001 (ip), vehicle: saline
[8] = dose: 400.0 mg/kg/injection, schedule: Q01DX001 (ip), vehicle: saline
[9] = dose: 100.0 mg/kg/injection, schedule: Q04DX003 (ip), vehicle: saline with Tween-80
[10] = dose: 200.0 mg/kg/injection, schedule: Q04DX003 (ip), vehicle: saline with Tween-80
[11] = dose: 400.0 mg/kg/injection, schedule: Q04DX003 (ip), vehicle: saline with Tween-80

Measured: T/C

O=C(O)CCSC(=S)Nc1ccccc1O
inactive: [1] 103 % of control | [2] 93 % of control | dose: 400.0 mg/kg/injection, schedule: Q01DX001 (ip), vehicle: carboxymethylcellulose (CMC) 98 % of control

CC(=O)N=c1ccc(C)cn1O
inactive: dose: 75.0 mg/kg/injection, schedule: Q01DX009 (ip), vehicle: Klucel (hydroxypropylcellulose) (HPC) 91 % of control | dose: 100.0 mg/kg/injection, schedule: Q04DX003 (ip), vehicle: Klucel (hydroxypropylcellulose) (HPC) 104 % of control | dose: 150.0 mg/kg/injection, schedule: Q01DX009 (ip), vehicle: Klucel (hydroxypropylcellulose) (HPC) 102 % of control | dose: 200.0 mg/kg/injection, schedule: Q04DX003 (ip), vehicle: Klucel (hydroxypropylcellulose) (HPC) 100 % of control | dose: 300.0 mg/kg/injection, schedule: Q01DX009 (ip), vehicle: Klucel (hydroxypropylcellulose) (HPC) 96 % of control | dose: 400.0 mg/kg/injection, schedule: Q04DX003 (ip), vehicle: Klucel (hydroxypropylcellulose) (HPC) 102 % of control

CCC(=O)c1ccccc1N
inactive: [3] 97 % of control | [4] 105 % of control | [5] 92 % of control

COc1ccc(-c2oc3ccccc3c(=O)c2O)cc1
inactive: dose: 50.0 mg/kg/injection, schedule: Q01DX001 (ip), vehicle: saline 104 % of control | [6] 101 % of control | [7] 106 % of control | [8] 98 % of control

COc1ccc(OC(=O)Nc2ccc(F)cc2)cc1
inactive: dose: 50.0 mg/kg/injection, schedule: Q01DX001 (ip), vehicle: carboxymethylcellulose (CMC) 97 % of control | dose: 50.0 mg/kg/injection, schedule: Q01DX009 (ip), vehicle: carboxymethylcellulose (CMC) 93 % of control and 90 % of control | dose: 50.0 mg/kg/injection, schedule: Q04DX002 (ip), vehicle: carboxymethylcellulose (CMC) 95 % of control and 106 % of control | dose: 50.0 mg/kg/injection, schedule: Q04DX003 (ip), vehicle: carboxymethylcellulose (CMC) 101 % of control | [1] 89 % of control | dose: 100.0 mg/kg/injection, schedule: Q01DX009 (ip), vehicle: carboxymethylcellulose (CMC) 93 % of control and 103 % of control | dose: 100.0 mg/kg/injection, schedule: Q04DX002 (ip), vehicle: carboxymethylcellulose (CMC) 101 % of control and 110 % of control | dose: 100.0 mg/kg/injection, schedule: Q04DX003 (ip), vehicle: carboxymethylcellulose (CMC) 101 % of control | [2] 89 % of control | dose: 200.0 mg/kg/injection, schedule: Q01DX009 (ip), vehicle: carboxymethylcellulose (CMC) 101 % of control and 104 % of control | dose: 200.0 mg/kg/injection, schedule: Q04DX002 (ip), vehicle: carboxymethylcellulose (CMC) 96 % of control and 106 % of control | dose: 200.0 mg/kg/injection, schedule: Q04DX003 (ip), vehicle: carboxymethylcellulose (CMC) 101 % of control

O=S(=O)(Nc1ccccc1Cl)c1ccccc1
inactive: dose: 100.0 mg/kg/injection, schedule: Q01DX009 (ip), vehicle: gum acacia 100 % of control | dose: 100.0 mg/kg/injection, schedule: Q04DX003 (ip), vehicle: gum acacia 93 % of control | dose: 200.0 mg/kg/injection, schedule: Q01DX009 (ip), vehicle: gum acacia 98 % of control | dose: 200.0 mg/kg/injection, schedule: Q04DX003 (ip), vehicle: gum acacia 95 % of control | dose: 400.0 mg/kg/injection, schedule: Q01DX009 (ip), vehicle: gum acacia 94 % of control | dose: 400.0 mg/kg/injection, schedule: Q04DX003 (ip), vehicle: gum acacia 95 % of control

COC(=O)C(C)CN1CCCC1 (stereo not given)
inactive: dose: 12.5 mg/kg/injection, schedule: Q01DX009 (ip), vehicle: saline 97 % of control | dose: 25.0 mg/kg/injection, schedule: Q01DX009 (ip), vehicle: saline 88 % of control | dose: 25.0 mg/kg/injection, schedule: Q04DX003 (ip), vehicle: saline 98 % of control | dose: 50.0 mg/kg/injection, schedule: Q01DX009 (ip), vehicle: saline 100 % of control | dose: 50.0 mg/kg/injection, schedule: Q04DX003 (ip), vehicle: saline 107 % of control | dose: 100.0 mg/kg/injection, schedule: Q04DX003 (ip), vehicle: saline 104 % of control

O=C1CC=C2C3CC4N(CCC45c4ccccc4N1C25)C/C3=C\CBr (stereo not given)
inactive: dose: 9.38 mg/kg/injection, schedule: Q01DX001 (ip), vehicle: other 100 % of control

CCCCSc1n[nH]c(=O)nc1N
inactive: [6] 93 % of control | [7] 96 % of control | [8] 98 % of control

Cc1cc(Cl)ccc1OC(=O)Nc1ccccc1Cl
inactive: dose: 100.0 mg/kg/injection, schedule: Q01DX001 (ip), vehicle: saline with Tween-80 97 % of control | [3] 102 % of control and 106 % of control | dose: 100.0 mg/kg/injection, schedule: Q04DX002 (ip), vehicle: Klucel (hydroxypropylcellulose) (HPC) 103 % of control | dose: 100.0 mg/kg/injection, schedule: Q04DX002 (ip), vehicle: saline with Tween-80 105 % of control and 89 % of control | [9] 96 % of control | dose: 200.0 mg/kg/injection, schedule: Q01DX001 (ip), vehicle: saline with Tween-80 94 % of control | [4] 100 % of control and 88 % of control | dose: 200.0 mg/kg/injection, schedule: Q04DX002 (ip), vehicle: Klucel (hydroxypropylcellulose) (HPC) 124 % of control | dose: 200.0 mg/kg/injection, schedule: Q04DX002 (ip), vehicle: saline with Tween-80 92 % of control and 100 % of control | [10] 100 % of control | dose: 400.0 mg/kg/injection, schedule: Q01DX001 (ip), vehicle: saline with Tween-80 99 % of control | [5] 102 % of control and 106 % of control | dose: 400.0 mg/kg/injection, schedule: Q04DX002 (ip), vehicle: Klucel (hydroxypropylcellulose) (HPC) 106 % of control | dose: 400.0 mg/kg/injection, schedule: Q04DX002 (ip), vehicle: saline with Tween-80 92 % of control and 105 % of control | [11] 96 % of control

Cc1ccc(C(O)(c2ccccc2)c2ccccc2C(=O)Nc2ccccc2)cc1 (stereo not given)
inactive: [3] 95 % of control | [4] 90 % of control | [5] 92 % of control

CC1CC(C)OS(=O)O1 (stereo not given)
inactive: dose: 44.0 mg/kg/injection, schedule: Q01DX Z (ip), vehicle: saline 104 % of control | dose: 66.0 mg/kg/injection, schedule: Q01DX Z (ip), vehicle: saline 102 % of control | dose: 75.0 mg/kg/injection, schedule: Q01DX001 (ip), vehicle: acetone 103 % of control | dose: 100.0 mg/kg/injection, schedule: Q01DX Z (ip), vehicle: saline 91 % of control | dose: 150.0 mg/kg/injection, schedule: Q01DX001 (ip), vehicle: acetone 103 % of control | dose: 300.0 mg/kg/injection, schedule: Q01DX001 (ip), vehicle: acetone 101 % of control

C=CCNC(=O)Oc1cccc(NC(=O)N(C)C)c1
inactive: [3] 107 % of control | [4] 109 % of control | [5] 120 % of control

Cc1ccc2cccc3c(=O)c4cccc5cccc(sc1c23)c54
inactive: [6] 88 % of control | dose: 100.0 mg/kg/injection, schedule: Q01DX009 (ip), vehicle: other 92 % of control | [7] 97 % of control | dose: 200.0 mg/kg/injection, schedule: Q01DX009 (ip), vehicle: other 92 % of control | [8] 89 % of control | dose: 400.0 mg/kg/injection, schedule: Q01DX009 (ip), vehicle: other 92 % of control

CCCCC(=O)N/N=C/c1ccc(Br)cc1
inactive: [6] 100 % of control | [7] 97 % of control | [8] 102 % of control

OC1(c2ccccc2)c2ccccc2-c2ccccc21
inactive: [3] 101 % of control | [9] 98 % of control | [4] 106 % of control | [10] 93 % of control | [5] 106 % of control | [11] 95 % of control

OCc1nccn1Cc1ccccc1
inactive: dose: 25.0 mg/kg/injection, schedule: Q01DX009 (ip), vehicle: water 99 % of control | dose: 50.0 mg/kg/injection, schedule: Q01DX009 (ip), vehicle: water 100 % of control | dose: 100.0 mg/kg/injection, schedule: Q01DX009 (ip), vehicle: saline 97 % of control | dose: 100.0 mg/kg/injection, schedule: Q01DX009 (ip), vehicle: water 100 % of control | dose: 200.0 mg/kg/injection, schedule: Q01DX009 (ip), vehicle: saline 108 % of control | dose: 200.0 mg/kg/injection, schedule: Q01DX009 (ip), vehicle: water 106 % of control

CC1CC=C(N2CCOCC2)CC1 (stereo not given)
inactive: dose: 100.0 mg/kg/injection, schedule: Q01DX009 (ip), vehicle: Klucel (hydroxypropylcellulose) (HPC) 98 % of control | dose: 200.0 mg/kg/injection, schedule: Q01DX009 (ip), vehicle: Klucel (hydroxypropylcellulose) (HPC) 97 % of control | dose: 400.0 mg/kg/injection, schedule: Q01DX009 (ip), vehicle: Klucel (hydroxypropylcellulose) (HPC) 103 % of control

Reference: PubChem BioAssay AID248 (DTP/NCI, 2004)
